The nature of data set [1]: Assay for subacute toxicity in mice. Format: in vivo. How it is done:
Subacute cytotoxicity tests were conducted by administering Example compounds 41 and 45, each suspended in aqueous 0.5% methylcellulose to mice once a day for 2 weeks.

The test system of data set [2] is Candida albicans. Description: In vivo assay for antifungal activity (survival of infected mice). The note with it: male mice, Candida albicans i.v.; 10 mg/kg orally once a day for seven days from 2 hours after infection; survival 28 days after infection. The procedure:
0.1 mL of a suspension containing 5×10^7 CFU/ml of Candida albicans was administered to each of 10 male mice by intravenous injection. 10 mg/kg of each of the test compounds to orally administer to the inoculated mouse 2 hours after the fungal infection. The test compound was administered once a day for seven days. The number of mice which survived the fungal infection for 28 days after the fungal infection was determined as % survival for each test group, and the results are given in Table 7: […]

For the next data set, the system named is Candida glabrata. Description: In vitro assay for antifungal activity (MIC80). In kind it is cell-based. The conditions noted are these: concentration at which 80% inhibition of fungus growth occurs, RPMI 1640, alamarBlue, 24 hours, duplicate; for MIC80: Nakaseomyces glabratus. How it is done: (§1) Each fungal strain to be tested was inoculated onto Sabouraud dextrose agar, YM agar, and potato dextrose agar and cultured at 35° C. for two to three days. Single colonies of such of the yeast fungi were collected from the culture and suspended in 5 ml of 0.85% sterile saline, in an appropriate amount so that the absorbance at 530 nm became 0.108. The suspensions was diluted serially by 1:50 (RPMI 1640 media:sterile saline) and then further diluted by 1:20 (RPMI 1640 media:sterile saline) to prepare liquid inocula having a cell count ranging from 1.0×10^3 to 5.0×10^3 CFU/ml.
(§2) Antifungal samples were prepared by serially diluting each of the compounds of the present invention in RPMI 1640 media to concentrations range from 0.0156 to 32 μg/ml. As an excipient, DMSO was added to the antifungal sample to a final concentration of 1% (VAT). 0.1 ml of each of the serially diluted test solution was added to each well of 96 well plate, followed by adding 0.1 ml of each of the fungal inocula thereto.
(§3) At a given concentration of the test compound, the fungus growth was observed, after 24 hours, with the naked eye for all yeast species except for Cryptococcus neoformans, and the filamentous fungus growth was observed, after 48 hours. Also, using the growth indicator alamarBlue, MIC80, the concentration of the test compound at which 80% inhibition of the fungus growth occurs was determined based on the value observed for the negative control.

The test system of a further data set is Candida krusei. Description: In vitro assay for antifungal activity (MIC80). In kind it is cell-based. The conditions noted are these: concentration at which 80% inhibition of fungus growth occurs, RPMI 1640, alamarBlue, 24 hours, duplicate; for MIC80: Pichia kudriavzevii. How it is done:
as §1, §2, §3
A general note: Resazurin is reduced to fluorescent resorufin, in cell work by metabolically active cells.

The next data set has as its system Candida tropicallis. Description: In vitro assay for antifungal activity (MIC80). Format: cell-based. The conditions noted are these: concentration at which 80% inhibition of fungus growth occurs, RPMI 1640, alamarBlue, 24 hours, duplicate; for MIC80: Candida. The procedure: as §1, §2, §3
Data set [3] concerns Candida albicans. Description: In vitro assay for antifungal activity (MIC80). Format: cell-based. The note with it: concentration at which 80% inhibition of fungus growth occurs, RPMI 1640, alamarBlue, 24 hours, duplicate; for MIC80: Candida albicans. The procedure:
as §1, §2, §3

The test system of the next data set is Candida parapsilosis. Description: In vitro assay for antifungal activity (MIC80). The note with it: concentration at which 80% inhibition of fungus growth occurs, RPMI 1640, alamarBlue, 24 hours, duplicate; for MIC80: Lodderomyces parapsilosis. In kind it is cell-based. The procedure:
as §1, §2, §3

A further data set deals with Cryptococcus neoformans. Description: In vitro assay for antifungal activity (MIC80). Format: cell-based. The note with it: concentration at which 80% inhibition of fungus growth occurs, RPMI 1640, alamarBlue, duplicate; for MIC80: Cryptococcus neoformans. The procedure:
as §1, §2, §3

[4] abbreviates: mice, suspended in aqueous 0.5% methylcellulose, once a day for 2 weeks.

Structures are written as SMILES. In brackets after ≈: the same amount, converted by molar mass.

As for `C[C@@H](n1cc(/C=C/c2ccc(Cl)cc2)cn1)[C@](O)(Cn1cncn1)c1ccc(F)cc1F` [Example 41, (2R,3R,E)-3-(4-(4-Chlorostyryl)-1H-pyrazol-1-yl)-2-(2,4-difluorophenyl)-1-(1H-1,2,4-triazol-1-yl)butan-2-ol], the “changes in the living states, organs, liver enzyme and liver weight” value in data set [1] (setting [4]) was “no changes”. The toxic syndromes result in data set [1] (setting [4]) is “none of the mice were observed to suffer from toxic syndromes”. For the same molecule, the “% Survival” value with Candida albicans [2] amounted to 100%. The MIC80 (usually the lowest concentration that inhibits either 80% of growth or 80% of the strains tested, depending on the study) was 1 µg/mL (≈ 2.19 µM) with Candida glabrata; 0.5 µg/mL (≈ 1.1 µM) against Candida krusei; 0.125 µg/mL (≈ 0.274 µM) against Candida tropicallis; no more than 0.015 µg/mL in the data set on Candida albicans [3]; no more than 0.015 µg/mL in the data set on Candida parapsilosis; no more than 0.015 µg/mL in the data set on Cryptococcus neoformans.
For the molecule `C[C@@H](n1cc(CCc2ccc(Cl)cc2)cn1)[C@](O)(Cn1cncn1)c1ccc(F)cc1F` [Example 39, (2R,3R)-3-(4-(4-Chlorophenethyl)-1H-pyrazol-1-yl)-2-(2,4-difluorophenyl)-1-(1H-1,2,4-triazol-1-yl)butan-2-ol], the MIC80 was 1 µg/mL (≈ 2.18 µM) in the data set on Candida glabrata; 0.5 µg/mL (≈ 1.09 µM) in the data set with Candida krusei; 0.062 µg/mL (≈ 0.135 µM) in the data set with Candida tropicallis; no more than 0.015 µg/mL against Candida albicans [3]; no more than 0.015 µg/mL against Candida parapsilosis; no more than 0.015 µg/mL in the data set with Cryptococcus neoformans.
On to `C[C@@H](n1cc(CCc2ccc(F)cc2)cn1)[C@](O)(Cn1cncn1)c1ccc(F)cc1F` [Example 38, (2R,3R)-2-(2,4-Difluorophenyl)-3-(4-(4-fluorophenethyl)-1H-pyrazol-1-yl)-1-(1H-1,2,4-triazol-1-yl)butan-2-ol], for which the MIC80 in the data set on Candida glabrata was 2 µg/mL (≈ 4.53 µM); in the data set with Candida krusei it was 0.25 µg/mL (≈ 0.566 µM); against Candida tropicallis it was no more than 0.015 µg/mL; against Candida albicans [3], no more than 0.015 µg/mL; with Candida parapsilosis, no more than 0.015 µg/mL; against Cryptococcus neoformans, 0.125 µg/mL (≈ 0.283 µM).
In the case of `OC(Cn1cncn1)(Cn1cncn1)c1ccc(F)cc1F` [Fluconazole, fluconazole, reference compound], the “% Survival” value in the data set on Candida albicans [2] was 50%. Besides, the MIC80 with Candida glabrata is greater than 32 µg/mL; in the data set on Candida krusei it was 4 µg/mL (≈ 13.1 µM); in the data set on Candida tropicallis, greater than 32 µg/mL; with Candida albicans [3] it was 4 µg/mL (≈ 13.1 µM); against Candida parapsilosis, greater than 32 µg/mL; in the data set with Cryptococcus neoformans, 32 µg/mL (≈ 104 µM).
For `C[C@@H](n1cc(C#Cc2ccc(F)cc2)cn1)[C@](O)(Cn1cncn1)c1ccc(F)cc1F` [Example 45], the toxic syndromes result in data set [1] (mouse, in vivo) is on record as “none of the mice were observed to suffer from toxic syndromes”. The “% Survival” value in the data set with Candida albicans [2] is listed as 100%. Also, the “MIC80 Candida glabrata” value against Candida glabrata came out at 2 µg/mL (≈ 4.57 µM). Besides, in the data set on Candida krusei, the “MIC80 Candida krusei” value is 0.5 µg/mL (≈ 1.14 µM). Moreover, the “MIC80 Candida tropicallis” value against Candida tropicallis was “≦0.015 μg/ml”. In the data set with Candida albicans [3], the “MIC80 Candida albicans” value is “≦0.015 μg/ml”. In addition, the “MIC80 Candida parapsilosis” value against Candida parapsilosis is “≦0.015 μg/ml”. Further, in the data set with Cryptococcus neoformans, the “MIC80 Cryptococcus neoformans” value was 0.062 µg/mL (≈ 0.142 µM).
Turning to `C[C@@H](n1cc(N2CCN(c3ccc(Cl)cc3)C2=O)cn1)[C@](O)(Cn1cncn1)c1ccc(F)cc1F` [Example 1, 1-(4-Chlorophenyl)-3-(1-((2R,3R)-3-(2,4-difluorophenyl)-3-hydroxy-4-(1H-1,2,4-triazol-1-yl)butan-2-yl)-1H-pyrazol-4-yl)imidazolidin-2-one], the MIC80 against Candida glabrata was 8 µg/mL (≈ 15.6 µM); with Candida krusei it was 2 µg/mL (≈ 3.89 µM); against Candida tropicallis, 1 µg/mL (≈ 1.95 µM); against Candida albicans [3], no more than 0.015 µg/mL; against Candida parapsilosis it was 0.125 µg/mL (≈ 0.243 µM); in the data set with Cryptococcus neoformans, 0.25 µg/mL (≈ 0.486 µM).
Turning to `C[C@@H](n1cc(/C=C/c2ccc(F)cc2)cn1)[C@](O)(Cn1cncn1)c1ccc(F)cc1F` [Example 40, (2R,3R,E)-2-(2,4-Difluorophenyl)-3-(4-(4-fluorostyryl)-1H-pyrazol-1-yl)-1-(1H-1,2,4-triazol-1-yl)butan-2-ol], the MIC80 with Candida glabrata was 2 µg/mL (≈ 4.55 µM); against Candida krusei, 0.25 µg/mL (≈ 0.569 µM); in the data set with Candida tropicallis, no more than 0.015 µg/mL; in the data set with Candida albicans [3] it was no more than 0.015 µg/mL; against Candida parapsilosis it was no more than 0.015 µg/mL; against Cryptococcus neoformans, 0.031 µg/mL (≈ 0.0705 µM).
In the case of `C[C@@H](n1cc(/C=C/c2cnccn2)cn1)[C@](O)(Cn1cncn1)c1ccc(F)cc1F` [Example 53, (2R,3R,E)-2-(2,4-Difluorophenyl)-3-(4-(2-(pyrazin-2-yl)vinyl)-1H-pyrazol-1-yl)-1-(1H-1,2,4-triazol-1-yl)butan-2-ol], the MIC80 against Candida krusei amounted to 4 µg/mL (≈ 9.45 µM); against Candida albicans [3], 0.125 µg/mL (≈ 0.295 µM); in the data set with Candida parapsilosis, 0.125 µg/mL (≈ 0.295 µM); in the data set on Cryptococcus neoformans, 1 µg/mL (≈ 2.36 µM).
`C[C@@H](n1cc(-n2ccn(-c3ccc(Cl)cc3)c2=O)cn1)[C@](O)(Cn1cncn1)c1ccc(F)cc1F` [Example 23, 3-(4-Chlorophenyl)-1-(1-((2R,3R)-3-(2,4-difluorophenyl)-3-hydroxy-4-(1H-1,2,4-triazol-1-yl)butan-2-yl)-1H-pyrazol-4-yl)-1H-imidazole-2(3H)-one]: the MIC80 in the data set with Candida glabrata was 4 µg/mL (≈ 7.81 µM); in the data set on Candida krusei, 0.5 µg/mL (≈ 0.977 µM); against Candida tropicallis, 0.125 µg/mL (≈ 0.244 µM); with Candida albicans [3], no more than 0.015 µg/mL; with Candida parapsilosis, no more than 0.015 µg/mL; against Cryptococcus neoformans, 0.125 µg/mL (≈ 0.244 µM).
